From the NIST ThermoML archive (doi:10.1016/j.jct.2016.02.007)
± gives the expanded uncertainty stated by the source.

Experiments:
[1] = 101.3 kPa, Liquid, Vibrating tube method
[2] = wn = mass fraction of the nth substance listed; conditions: 101.3 kPa, Liquid, Vibrating tube method, w2 = 0

mass density ([1]; 293.15 K) [kg/m3] | mass density ([1]; 298.15 K) [kg/m3] | mass density ([1]; 303.15 K) [kg/m3] | mass density ([1]; 308.15 K) [kg/m3] | mass density ([1]; 313.15 K) [kg/m3] | mass density ([1]; 318.15 K) [kg/m3] | mass density ([1]; 323.15 K) [kg/m3] | mass density ([1]; 328.15 K) [kg/m3] | mass density ([1]; 333.15 K) [kg/m3] | mass density ([1]; 338.15 K) [kg/m3] | mass density ([1]; 343.15 K) [kg/m3] | mass density ([2]; 313.15 K) [kg/m3] | mass density ([2]; 318.15 K) [kg/m3] | mass density ([2]; 323.15 K) [kg/m3] | mass density ([2]; 328.15 K) [kg/m3] | mass density ([2]; 333.15 K) [kg/m3] | mass density ([2]; 338.15 K) [kg/m3] | mass density ([2]; 343.15 K) [kg/m3] | Structure (SMILES)
886.7 ± 4.8 | 883 ± 4.8 | 879.1 ± 4.8 | 875.1 ± 4.8 | 871.2 ± 4.8 | 867.2 ± 4.8 | 863.1 ± 4.8 | 859.1 ± 4.8 | 855 ± 4.8 | 850.8 ± 4.8 | 846.7 ± 4.8 | – | – | – | – | – | – | – | CN(C)CCCO [3-dimethylamino-1-propanol]
– | – | – | – | 992.3 ± 1 | 990.3 ± 1 | 988 ± 1 | 985.6 ± 1 | 983.3 ± 1 | 980.7 ± 1 | 977.9 ± 1 | – | – | – | – | – | – | – | O [water]
– | – | – | – | – | – | – | – | – | – | – | 992.3 ± 4.8 | 990.3 ± 4.8 | 988 ± 4.8 | 985.6 ± 4.8 | 983.3 ± 4.8 | 980.7 ± 4.8 | 977.9 ± 4.8 | O [water] + CN(C)CCCO
